The values below come from paper PMC10174618, “Monoterpenoid aryl hydrocarbon receptor allosteric antagonists protect against ultraviolet skin damage in female mice” (Nature Communications, 2023).

Common to all, as to assay: biochemical
What all share (set-up): KINOMEscan scanMAX active site-directed competition binding assay, percent of control, 468 kinases
Conditions in all cases: competition binding, percent of control

Test [1] deals with AKT3 (Homo sapiens, UniProt Q9Y243). As to the method:
(§1) The KINOMEscan^TM screening platform (scanMAX assay) employs a proprietary active site-directed competition binding assay that quantitatively measures the interactions between test compounds (here 100 μM S-carvone) and 468 human protein kinases. The assay was performed at Eurofins DiscoverX Corp. (Fremont, CA, USA). Blocking protein kinase C (PKC) activity was reported to inhibit the transcription of CYP1A1 but to exert no effect on the nuclear translocation of AhR[26], which was also the case here with carvones. Therefore, we tested whether carvones inhibit PKC catalytic activity. […] We also evaluated the interaction between 100 μM S-carvone and 468 human protein kinases, employing KINOMEscan^TM (scanMAX assay), a proprietary active site-directed competition binding assay. The minimal inhibitory threshold used by the screening platform KINOMEscan^TM is 35% of the control kinase activity. Among 468 kinases tested, 467 were above the 35% cutoff. Tyrosine kinase 2 TK2 (JH2 domain pseudokinase) activity was inhibited to 27% of the control activity, but this kinase is not relevant to the regulation of transcription activity (Fig. 5B; Figure S9). Overall, we excluded the possibility that the effects of carvones on AhR signaling are caused indirectly by the inhibition of the human kinome, particularly PKC.

The target in test [2] is T1, AMPK-alpha1 (Homo sapiens, UniProt Q13131).
T1 construct: gene PRKAA1
As to the method: as §1

The target of test [3] is T2, CDK4-cyclinD3 (Homo sapiens, UniProt P11802).
T2 construct: cyclinD3
As to the method:
as §1

The target in test [4] is CSNK1A1 (Homo sapiens, UniProt P48729). On the procedure: as §1
Chain of CSNK1A1 (P48729 whole entry): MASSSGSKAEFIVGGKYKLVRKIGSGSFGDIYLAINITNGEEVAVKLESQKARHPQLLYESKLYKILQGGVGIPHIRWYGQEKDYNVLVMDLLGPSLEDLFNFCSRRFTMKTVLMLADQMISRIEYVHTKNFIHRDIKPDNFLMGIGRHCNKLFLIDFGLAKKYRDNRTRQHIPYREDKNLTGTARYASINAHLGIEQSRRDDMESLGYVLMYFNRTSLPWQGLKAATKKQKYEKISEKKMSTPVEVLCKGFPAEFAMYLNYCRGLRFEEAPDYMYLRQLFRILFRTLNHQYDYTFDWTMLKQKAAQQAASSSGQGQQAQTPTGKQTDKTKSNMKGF
Test [5] has as its target T3, DLK (Homo sapiens, UniProt Q12852).
T3 construct: gene MAP3K12
On the procedure:
as §1

Test [6] addresses FGFR1 (Homo sapiens, UniProt P11362). As to the method: as §1
Test [7] concerns the target FGFR3 (Homo sapiens, UniProt P22607). As to the method: as §1
Test [8] addresses FLT3(D835Y) (Homo sapiens, UniProt P36888, D835Y). As to the method: as §1
For test [9], the target named is FLT3(ITD) (Homo sapiens, UniProt P36888, ITD). As to the method: as §1
The target of test [10] is IGF1R (Homo sapiens, UniProt P08069). On the procedure:
as §1

Test [11] has as its target T4, IKK-alpha (Homo sapiens, UniProt O15111).
T4 construct: gene CHUK
On the procedure: as §1

The target in test [12] is INSRR (Homo sapiens, UniProt P14616). On the procedure:
as §1

The target of test [13] is T5, MEK1 (Homo sapiens, UniProt Q02750).
T5 construct: gene MAP2K1
On the procedure: as §1

In test [14] the target is MET(Y1235D) (Homo sapiens, UniProt P08581, Y1235D). As to the method:
as §1

In test [15] the target is T6, MRCKA (Homo sapiens, UniProt Q5VT25).
T6 construct: gene CDC42BPA
As to the method:
as §1

Test [16] has as its target NEK1 (Homo sapiens, UniProt Q96PY6). As to the method:
as §1

Test [17] addresses T7, PFTK1 (Homo sapiens, UniProt O94921).
T7 construct: gene CDK14
On the procedure:
as §1

Test [18] has as its target PHKG1 (Homo sapiens, UniProt Q16816). On the procedure:
as §1

The target of test [19] is PRKCI (Homo sapiens, UniProt P41743). On the procedure: as §1
Test [20] has as its target T8, PRP4 (Homo sapiens, UniProt Q13523).
T8 construct: gene PRPF4B
On the procedure:
as §1

For test [21], the target named is SGK2 (Homo sapiens, UniProt Q9HBY8). As to the method: as §1
Chain of SGK2 (Q9HBY8 whole entry): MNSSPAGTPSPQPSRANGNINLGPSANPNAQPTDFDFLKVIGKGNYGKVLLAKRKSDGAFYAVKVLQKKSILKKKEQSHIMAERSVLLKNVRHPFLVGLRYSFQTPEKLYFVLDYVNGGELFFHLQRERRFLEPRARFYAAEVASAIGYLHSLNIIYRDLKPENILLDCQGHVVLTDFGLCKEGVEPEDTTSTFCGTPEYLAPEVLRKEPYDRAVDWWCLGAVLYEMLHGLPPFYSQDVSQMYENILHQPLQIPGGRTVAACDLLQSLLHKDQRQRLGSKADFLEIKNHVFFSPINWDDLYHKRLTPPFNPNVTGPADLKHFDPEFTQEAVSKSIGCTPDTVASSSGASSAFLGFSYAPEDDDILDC

T7 sequence (O94921 whole entry): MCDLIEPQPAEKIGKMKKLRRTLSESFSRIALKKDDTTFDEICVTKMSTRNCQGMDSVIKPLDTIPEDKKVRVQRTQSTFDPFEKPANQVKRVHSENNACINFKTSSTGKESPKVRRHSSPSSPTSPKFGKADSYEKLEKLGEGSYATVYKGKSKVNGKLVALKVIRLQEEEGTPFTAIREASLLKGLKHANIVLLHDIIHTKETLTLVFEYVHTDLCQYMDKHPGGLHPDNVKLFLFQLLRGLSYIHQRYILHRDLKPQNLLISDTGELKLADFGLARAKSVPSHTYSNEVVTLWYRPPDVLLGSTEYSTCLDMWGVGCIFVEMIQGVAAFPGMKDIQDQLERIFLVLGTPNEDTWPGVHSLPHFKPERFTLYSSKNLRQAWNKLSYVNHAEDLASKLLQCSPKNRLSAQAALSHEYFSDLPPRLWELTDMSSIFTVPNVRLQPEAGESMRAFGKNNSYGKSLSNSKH
Chain of AKT3 (Q9Y243 whole entry): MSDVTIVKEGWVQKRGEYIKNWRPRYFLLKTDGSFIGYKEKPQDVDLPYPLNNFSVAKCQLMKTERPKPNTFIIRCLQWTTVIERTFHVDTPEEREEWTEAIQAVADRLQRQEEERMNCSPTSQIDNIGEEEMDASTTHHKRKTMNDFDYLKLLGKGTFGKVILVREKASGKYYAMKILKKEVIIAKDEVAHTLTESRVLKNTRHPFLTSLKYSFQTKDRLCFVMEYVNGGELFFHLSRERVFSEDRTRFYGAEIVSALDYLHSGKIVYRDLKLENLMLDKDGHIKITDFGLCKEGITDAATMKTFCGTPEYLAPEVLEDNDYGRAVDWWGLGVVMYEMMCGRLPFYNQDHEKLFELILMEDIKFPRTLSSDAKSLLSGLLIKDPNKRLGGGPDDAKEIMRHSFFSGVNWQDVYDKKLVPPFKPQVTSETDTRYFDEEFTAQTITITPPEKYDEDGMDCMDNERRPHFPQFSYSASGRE
Chain of NEK1 (Q96PY6 whole entry): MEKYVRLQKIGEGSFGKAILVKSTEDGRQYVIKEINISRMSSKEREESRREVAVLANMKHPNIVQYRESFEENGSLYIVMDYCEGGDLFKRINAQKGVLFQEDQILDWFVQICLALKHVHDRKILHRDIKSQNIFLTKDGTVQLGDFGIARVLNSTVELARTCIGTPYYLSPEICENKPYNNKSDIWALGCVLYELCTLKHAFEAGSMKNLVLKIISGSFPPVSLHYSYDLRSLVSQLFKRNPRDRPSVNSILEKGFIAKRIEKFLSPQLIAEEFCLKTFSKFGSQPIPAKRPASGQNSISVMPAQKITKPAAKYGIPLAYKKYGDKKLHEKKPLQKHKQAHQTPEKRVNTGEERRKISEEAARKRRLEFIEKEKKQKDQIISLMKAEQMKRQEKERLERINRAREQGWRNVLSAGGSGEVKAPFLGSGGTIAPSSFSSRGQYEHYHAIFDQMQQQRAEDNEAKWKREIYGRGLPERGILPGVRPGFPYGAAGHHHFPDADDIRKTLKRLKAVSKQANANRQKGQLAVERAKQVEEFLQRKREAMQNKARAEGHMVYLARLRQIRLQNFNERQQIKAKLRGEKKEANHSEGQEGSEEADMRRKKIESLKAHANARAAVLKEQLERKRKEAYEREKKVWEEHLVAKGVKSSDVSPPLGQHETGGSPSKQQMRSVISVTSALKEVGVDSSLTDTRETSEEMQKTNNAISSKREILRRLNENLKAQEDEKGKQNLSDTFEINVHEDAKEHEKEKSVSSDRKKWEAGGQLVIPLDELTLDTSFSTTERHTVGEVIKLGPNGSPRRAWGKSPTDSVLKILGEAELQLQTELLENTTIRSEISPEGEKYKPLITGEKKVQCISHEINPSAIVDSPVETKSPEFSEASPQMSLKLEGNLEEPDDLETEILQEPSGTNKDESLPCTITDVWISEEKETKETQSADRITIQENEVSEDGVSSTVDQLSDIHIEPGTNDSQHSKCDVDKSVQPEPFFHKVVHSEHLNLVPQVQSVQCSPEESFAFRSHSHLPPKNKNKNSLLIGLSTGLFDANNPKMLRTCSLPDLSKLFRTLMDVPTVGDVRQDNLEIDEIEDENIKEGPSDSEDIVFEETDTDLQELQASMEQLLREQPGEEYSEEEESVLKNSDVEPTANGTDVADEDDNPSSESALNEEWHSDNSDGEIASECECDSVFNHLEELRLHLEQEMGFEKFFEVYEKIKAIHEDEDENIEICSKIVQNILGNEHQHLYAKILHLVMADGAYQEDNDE
T3 sequence (Q12852 whole entry): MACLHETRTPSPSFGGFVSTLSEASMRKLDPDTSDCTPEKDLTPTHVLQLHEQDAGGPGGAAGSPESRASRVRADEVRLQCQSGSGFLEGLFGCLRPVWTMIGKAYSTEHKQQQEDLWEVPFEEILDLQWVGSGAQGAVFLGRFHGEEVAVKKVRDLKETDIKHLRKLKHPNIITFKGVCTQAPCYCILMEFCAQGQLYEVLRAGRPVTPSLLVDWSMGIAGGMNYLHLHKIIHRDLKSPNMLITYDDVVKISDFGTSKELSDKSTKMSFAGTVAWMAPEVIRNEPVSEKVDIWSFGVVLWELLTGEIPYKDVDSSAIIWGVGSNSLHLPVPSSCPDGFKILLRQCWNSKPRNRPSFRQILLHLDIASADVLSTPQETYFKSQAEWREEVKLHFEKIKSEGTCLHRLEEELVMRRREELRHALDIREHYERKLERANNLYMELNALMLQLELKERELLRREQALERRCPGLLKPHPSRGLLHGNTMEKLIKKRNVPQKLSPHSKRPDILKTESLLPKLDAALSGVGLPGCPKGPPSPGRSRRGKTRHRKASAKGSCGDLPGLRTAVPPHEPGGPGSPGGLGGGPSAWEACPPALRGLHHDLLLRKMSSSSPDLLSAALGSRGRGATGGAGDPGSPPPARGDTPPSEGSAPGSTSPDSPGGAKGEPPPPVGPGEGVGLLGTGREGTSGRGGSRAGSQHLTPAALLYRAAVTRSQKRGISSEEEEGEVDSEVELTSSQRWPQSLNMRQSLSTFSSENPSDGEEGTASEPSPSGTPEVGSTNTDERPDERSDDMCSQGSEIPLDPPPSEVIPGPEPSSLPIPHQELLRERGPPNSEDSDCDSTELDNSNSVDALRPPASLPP
Chain of INSRR (P14616 whole entry): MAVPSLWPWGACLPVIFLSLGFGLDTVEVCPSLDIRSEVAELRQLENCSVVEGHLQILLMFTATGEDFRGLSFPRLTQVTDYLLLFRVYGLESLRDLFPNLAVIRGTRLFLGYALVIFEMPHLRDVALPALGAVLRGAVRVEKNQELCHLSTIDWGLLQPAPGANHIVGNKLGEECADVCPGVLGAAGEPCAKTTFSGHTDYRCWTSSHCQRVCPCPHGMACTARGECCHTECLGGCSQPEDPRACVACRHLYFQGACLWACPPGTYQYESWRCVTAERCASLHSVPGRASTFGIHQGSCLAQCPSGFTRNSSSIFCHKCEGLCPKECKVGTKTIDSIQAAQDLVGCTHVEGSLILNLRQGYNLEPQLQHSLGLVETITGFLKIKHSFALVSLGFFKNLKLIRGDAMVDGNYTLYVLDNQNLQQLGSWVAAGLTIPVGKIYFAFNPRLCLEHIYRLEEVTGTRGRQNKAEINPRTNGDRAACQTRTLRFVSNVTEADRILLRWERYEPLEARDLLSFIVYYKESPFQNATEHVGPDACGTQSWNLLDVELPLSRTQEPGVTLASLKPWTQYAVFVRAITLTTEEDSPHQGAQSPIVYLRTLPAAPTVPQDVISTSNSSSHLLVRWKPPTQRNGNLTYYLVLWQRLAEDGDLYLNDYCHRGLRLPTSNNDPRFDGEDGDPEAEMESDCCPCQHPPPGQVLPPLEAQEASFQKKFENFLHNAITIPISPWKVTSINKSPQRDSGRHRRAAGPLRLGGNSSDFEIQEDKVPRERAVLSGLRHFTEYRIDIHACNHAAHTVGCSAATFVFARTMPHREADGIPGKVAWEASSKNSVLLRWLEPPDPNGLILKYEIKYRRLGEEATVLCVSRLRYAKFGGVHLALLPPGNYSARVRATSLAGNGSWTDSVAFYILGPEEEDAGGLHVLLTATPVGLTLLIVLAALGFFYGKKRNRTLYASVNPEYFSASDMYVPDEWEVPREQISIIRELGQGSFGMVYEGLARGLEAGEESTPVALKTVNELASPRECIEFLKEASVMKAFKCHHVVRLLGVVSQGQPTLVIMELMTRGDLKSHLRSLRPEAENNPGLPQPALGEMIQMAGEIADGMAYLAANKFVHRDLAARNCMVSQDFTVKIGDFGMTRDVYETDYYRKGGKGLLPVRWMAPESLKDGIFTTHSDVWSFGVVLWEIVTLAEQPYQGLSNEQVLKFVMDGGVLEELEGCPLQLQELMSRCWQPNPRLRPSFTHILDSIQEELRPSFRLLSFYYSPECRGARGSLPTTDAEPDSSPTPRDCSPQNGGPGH

For the compound `C=C(C)[C@H]1CC=C(C)C(=O)C1` [S-carvone], the remaining binding at 100 µM in test [1] stood at 90%; in [2] it was 89%; in test [3] it was 86%; in test [4], 68%; in test [5] it was 88%; in test [6] it was 92%. For the same compound, the remaining binding at 100 µM in test [7] is 75%; in [8], 90%; in test [9], 92%; in [10], 82%; in [11], 72%; in test [12], 84%. In addition, the remaining binding at 100 µM in test [13] came out at 71%; in [14], 87%; in [15], 80%; in [16], 94%; in test [17] it was 93%; in [18], 100%. Besides, the values for the remaining binding at 100 µM in [19], in [20] and in [21] were 72%, 62% and 68%, respectively.
